Measurements reported in ChEMBL document CHEMBL1201862, “PubChem BioAssay data set” (2004).
Calls of active or inactive are those of the source.

How the values were obtained:
HEK293 [1] = assay: NOD2 signaling inhibitors in MDP-stimulated cells, cell-based, uHTS, luminescence (AID 2001); assay type: functional; conditions: Homo sapiens
HEK293 [2] = assay: NOD1 signaling inhibitors, primary screen, cell-based, luminescence, uHTS (AID 1578); assay type: functional; conditions: Homo sapiens
HEK293 [3] = assay: cells; assay type: functional, cell-based; conditions: Homo sapiens
[4] = target: Nucleotide-binding oligomerization domain-containing protein 2 (Homo sapiens, UniProt Q9HC29); assay: NOD2 signaling inhibitors, cell-based, luminescence, uHTS, HEK293 (AID 1566); assay type: functional
Chain of Nucleotide-binding oligomerization domain-containing protein 2 (Q9HC29 whole entry, the tested form may be a part): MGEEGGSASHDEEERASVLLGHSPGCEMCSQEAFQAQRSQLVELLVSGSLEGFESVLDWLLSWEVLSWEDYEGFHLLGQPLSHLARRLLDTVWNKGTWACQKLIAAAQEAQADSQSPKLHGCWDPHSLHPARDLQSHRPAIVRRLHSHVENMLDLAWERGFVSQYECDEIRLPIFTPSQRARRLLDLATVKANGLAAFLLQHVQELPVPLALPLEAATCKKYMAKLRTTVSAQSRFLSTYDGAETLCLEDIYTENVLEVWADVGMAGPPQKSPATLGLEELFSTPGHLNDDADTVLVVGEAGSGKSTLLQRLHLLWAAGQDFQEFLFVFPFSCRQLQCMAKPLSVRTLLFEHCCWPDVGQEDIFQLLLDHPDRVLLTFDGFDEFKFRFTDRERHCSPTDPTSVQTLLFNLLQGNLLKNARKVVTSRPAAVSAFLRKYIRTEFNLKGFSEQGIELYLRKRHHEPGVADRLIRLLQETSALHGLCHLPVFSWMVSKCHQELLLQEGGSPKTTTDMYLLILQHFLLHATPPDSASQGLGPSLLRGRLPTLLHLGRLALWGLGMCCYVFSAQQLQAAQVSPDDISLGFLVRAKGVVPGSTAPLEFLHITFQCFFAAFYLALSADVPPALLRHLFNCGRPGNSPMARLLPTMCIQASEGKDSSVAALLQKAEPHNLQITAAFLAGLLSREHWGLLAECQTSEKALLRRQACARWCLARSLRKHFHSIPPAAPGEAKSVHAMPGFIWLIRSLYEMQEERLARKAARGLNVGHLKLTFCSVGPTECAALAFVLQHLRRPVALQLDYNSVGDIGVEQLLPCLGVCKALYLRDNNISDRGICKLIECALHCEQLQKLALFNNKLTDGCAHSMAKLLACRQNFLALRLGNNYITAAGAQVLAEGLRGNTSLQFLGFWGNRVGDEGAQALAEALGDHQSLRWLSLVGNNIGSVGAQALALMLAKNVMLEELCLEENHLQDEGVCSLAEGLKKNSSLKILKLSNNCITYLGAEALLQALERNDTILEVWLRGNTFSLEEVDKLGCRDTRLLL

HEK293 [5] = assay: cells; assay type: functional, cell-based; conditions: Homo sapiens; remark: listed apart in the source
HEK293 [6] = assay: cells; assay type: functional, cell-based; conditions: Homo sapiens; remark: listed apart in the source
[7] = target: T1, Heat shock factor protein 1 (Mus musculus, UniProt P38532); assay: inhibition of MG132-induced HSE-luciferase signal, confirmation, cell-based, NIH3T3, luminescence, dose retest (AID 2382); assay type: functional;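 also: NIH3T3 fibroblasts with HSF1-driven luciferase reporter stressed by proteasome inhibitor MG132; luminescence from HSF1-driven luciferase expression after 8 hours of MG132 stress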
T1 sequence (P38532 whole entry): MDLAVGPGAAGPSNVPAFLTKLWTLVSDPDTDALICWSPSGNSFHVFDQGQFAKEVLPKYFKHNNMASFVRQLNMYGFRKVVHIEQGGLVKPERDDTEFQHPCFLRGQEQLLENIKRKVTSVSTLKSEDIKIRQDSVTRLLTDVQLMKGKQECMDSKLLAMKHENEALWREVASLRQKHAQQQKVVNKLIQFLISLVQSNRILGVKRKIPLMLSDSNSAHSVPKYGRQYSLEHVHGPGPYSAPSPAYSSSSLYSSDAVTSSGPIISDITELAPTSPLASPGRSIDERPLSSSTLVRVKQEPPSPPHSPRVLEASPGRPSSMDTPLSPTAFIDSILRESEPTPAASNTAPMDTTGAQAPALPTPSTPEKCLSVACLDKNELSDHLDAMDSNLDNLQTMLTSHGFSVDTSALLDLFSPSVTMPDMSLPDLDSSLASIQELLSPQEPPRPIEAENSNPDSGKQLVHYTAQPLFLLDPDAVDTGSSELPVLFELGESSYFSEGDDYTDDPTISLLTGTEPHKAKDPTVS

[8] = Luminescence Cell-Based Dose Response HTS to Identify Activators of 5'UTR Stem-Loop Driven Prion Protein mRNA Translation in H4-C Neuroglioblastoma Cells. [Related pubchem assays: 1829 (Project Summary), 1814 (Primary HTS)]; assay type: functional
[9] = Luminescence Cell-Based Dose Response HTS to Identify Inhibitors of 5'UTR Stem-Loop Driven Prion Protein mRNA Translation in H4 Neuroglioblastoma Cells. [Related pubchem assays: 1827 (Project Summary), 1813 (Primary HTS)]; assay type: functional
[10] = Luminescence Cell-Based Dose Response HTS to Identify Inhibitors of Luciferase Translation or Activity in H4-C Neuroglioblastoma Cells. [Related pubchem assays: 1813 (Primary HTS), 1827 (Project Summary)]; assay type: functional
[11] = inhibitors of SNCA 5'UTR-driven reporter translation, confirmation, H4 neuroglioma cells, luminescence (AID 1988); assay type: functional, cell-based
[12] = Luminescence Cell-Based Dose HTS Response to Identify Inhibitors of 5'UTR Stem-Loop Driven Prion Protein mRNA Translation in H4-C Neuroglioblastoma Cells. [Related pubchem assays (depositor defined):AID1814, AID1827]; assay type: functional
[13] = Luminescence Cell-Based Dose Confirmation HTS to Identify Inhibitors of 5'UTR Stem-Loop Driven Alpha-Synuclein mRNA Translation in H4 Neuroglioblastoma Cells. [Related pubchem assays: 1827 (Project Summary), 1813 (Primary HTS)]; assay type: functional
[14] = inhibitors of firefly luciferase expression or activity, dose response, H4 neuroglioma cells, luminescence (AID 1990); assay type: functional, cell-based
[15] = Luminescence Cell-Based Dose Retest to Confirm Activators of 5'UTR Stem-Loop Driven Alpha-Synuclein mRNA Translation in H4 Neuroglioblastoma Cells. [Related pubchem assays (depositor defined):AID1813, AID1829]; assay type: functional
[16] = Luminescence Cell-Based Dose Response HTS to Identify Activators of Luciferase Translation or Activity in H4-C Neuroglioblastoma Cells. [Related pubchem assays: 1829 (Project Summary), 1814 (Primary HTS)]; assay type: functional
[17] = cytotoxicity in HEK-293T cells, dose response, cytotoxicity control for TCR NF-kB inhibitor project, luminescence, T-cell screen hits (AID 489026); assay type: functional, cell-based;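 also: cells exposed to compound about 14 hours before the viability readout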
[18] = target: T2, Runt-related transcription factor 1/Core-binding factor subunit beta (Homo sapiens, UniProt Q01196+Q13951); assay: inhibitors of RUNX1 Runt–CBFb-SMMHC binding, biochemical, TR-FRET (AID 1438); assay type: protein assay
T2 sequence (Q01196 whole entry): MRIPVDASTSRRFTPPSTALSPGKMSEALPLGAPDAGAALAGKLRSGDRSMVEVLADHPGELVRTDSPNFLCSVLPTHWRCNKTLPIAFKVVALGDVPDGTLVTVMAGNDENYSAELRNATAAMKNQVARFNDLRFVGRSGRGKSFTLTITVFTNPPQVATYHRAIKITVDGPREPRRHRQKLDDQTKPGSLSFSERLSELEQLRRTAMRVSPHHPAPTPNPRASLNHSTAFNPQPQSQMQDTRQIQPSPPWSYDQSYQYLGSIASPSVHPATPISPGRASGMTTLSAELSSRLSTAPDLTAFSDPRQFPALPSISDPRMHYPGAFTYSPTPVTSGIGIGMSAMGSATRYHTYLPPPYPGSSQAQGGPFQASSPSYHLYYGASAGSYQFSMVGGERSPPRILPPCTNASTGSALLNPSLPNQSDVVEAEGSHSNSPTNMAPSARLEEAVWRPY
T2 sequence (Q13951 whole entry): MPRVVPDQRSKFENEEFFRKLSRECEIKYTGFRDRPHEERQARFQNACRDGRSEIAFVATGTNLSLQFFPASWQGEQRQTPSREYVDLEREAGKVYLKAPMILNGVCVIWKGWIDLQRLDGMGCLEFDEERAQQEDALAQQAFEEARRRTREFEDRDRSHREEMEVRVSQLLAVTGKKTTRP

[19] = target: T3, Probable nicotinate-nucleotide adenylyltransferase (Staphylococcus aureus (strain N315), UniProt P65502); assay type: functional, Staphylococcus aureus subsp. aureus N315;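 as to IC50 Mean: confirmatory dose-response retesting of NadD inhibitor hits first found in an ultra-high-throughput screen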
T3 sequence (P65502 whole entry): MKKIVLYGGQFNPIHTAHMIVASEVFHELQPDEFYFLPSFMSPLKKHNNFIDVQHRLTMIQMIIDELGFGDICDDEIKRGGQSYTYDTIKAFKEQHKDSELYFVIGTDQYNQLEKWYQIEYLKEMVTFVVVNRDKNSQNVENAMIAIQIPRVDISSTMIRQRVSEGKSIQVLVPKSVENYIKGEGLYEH

[20] = target: T4, Voltage-gated N-type calcium channel alpha-1B subunit/Amyloid beta A4 precursor protein-binding family A member 1 (Homo sapiens, UniProt Q00975+Q02410); assay: disruptors of Mint-PDZ/N-type channel peptide interaction – biochemical, HTRF, SAR follow-up (AID 2489); assay type: functional
T4 sequence (Q00975 whole entry, the tested form may be a part): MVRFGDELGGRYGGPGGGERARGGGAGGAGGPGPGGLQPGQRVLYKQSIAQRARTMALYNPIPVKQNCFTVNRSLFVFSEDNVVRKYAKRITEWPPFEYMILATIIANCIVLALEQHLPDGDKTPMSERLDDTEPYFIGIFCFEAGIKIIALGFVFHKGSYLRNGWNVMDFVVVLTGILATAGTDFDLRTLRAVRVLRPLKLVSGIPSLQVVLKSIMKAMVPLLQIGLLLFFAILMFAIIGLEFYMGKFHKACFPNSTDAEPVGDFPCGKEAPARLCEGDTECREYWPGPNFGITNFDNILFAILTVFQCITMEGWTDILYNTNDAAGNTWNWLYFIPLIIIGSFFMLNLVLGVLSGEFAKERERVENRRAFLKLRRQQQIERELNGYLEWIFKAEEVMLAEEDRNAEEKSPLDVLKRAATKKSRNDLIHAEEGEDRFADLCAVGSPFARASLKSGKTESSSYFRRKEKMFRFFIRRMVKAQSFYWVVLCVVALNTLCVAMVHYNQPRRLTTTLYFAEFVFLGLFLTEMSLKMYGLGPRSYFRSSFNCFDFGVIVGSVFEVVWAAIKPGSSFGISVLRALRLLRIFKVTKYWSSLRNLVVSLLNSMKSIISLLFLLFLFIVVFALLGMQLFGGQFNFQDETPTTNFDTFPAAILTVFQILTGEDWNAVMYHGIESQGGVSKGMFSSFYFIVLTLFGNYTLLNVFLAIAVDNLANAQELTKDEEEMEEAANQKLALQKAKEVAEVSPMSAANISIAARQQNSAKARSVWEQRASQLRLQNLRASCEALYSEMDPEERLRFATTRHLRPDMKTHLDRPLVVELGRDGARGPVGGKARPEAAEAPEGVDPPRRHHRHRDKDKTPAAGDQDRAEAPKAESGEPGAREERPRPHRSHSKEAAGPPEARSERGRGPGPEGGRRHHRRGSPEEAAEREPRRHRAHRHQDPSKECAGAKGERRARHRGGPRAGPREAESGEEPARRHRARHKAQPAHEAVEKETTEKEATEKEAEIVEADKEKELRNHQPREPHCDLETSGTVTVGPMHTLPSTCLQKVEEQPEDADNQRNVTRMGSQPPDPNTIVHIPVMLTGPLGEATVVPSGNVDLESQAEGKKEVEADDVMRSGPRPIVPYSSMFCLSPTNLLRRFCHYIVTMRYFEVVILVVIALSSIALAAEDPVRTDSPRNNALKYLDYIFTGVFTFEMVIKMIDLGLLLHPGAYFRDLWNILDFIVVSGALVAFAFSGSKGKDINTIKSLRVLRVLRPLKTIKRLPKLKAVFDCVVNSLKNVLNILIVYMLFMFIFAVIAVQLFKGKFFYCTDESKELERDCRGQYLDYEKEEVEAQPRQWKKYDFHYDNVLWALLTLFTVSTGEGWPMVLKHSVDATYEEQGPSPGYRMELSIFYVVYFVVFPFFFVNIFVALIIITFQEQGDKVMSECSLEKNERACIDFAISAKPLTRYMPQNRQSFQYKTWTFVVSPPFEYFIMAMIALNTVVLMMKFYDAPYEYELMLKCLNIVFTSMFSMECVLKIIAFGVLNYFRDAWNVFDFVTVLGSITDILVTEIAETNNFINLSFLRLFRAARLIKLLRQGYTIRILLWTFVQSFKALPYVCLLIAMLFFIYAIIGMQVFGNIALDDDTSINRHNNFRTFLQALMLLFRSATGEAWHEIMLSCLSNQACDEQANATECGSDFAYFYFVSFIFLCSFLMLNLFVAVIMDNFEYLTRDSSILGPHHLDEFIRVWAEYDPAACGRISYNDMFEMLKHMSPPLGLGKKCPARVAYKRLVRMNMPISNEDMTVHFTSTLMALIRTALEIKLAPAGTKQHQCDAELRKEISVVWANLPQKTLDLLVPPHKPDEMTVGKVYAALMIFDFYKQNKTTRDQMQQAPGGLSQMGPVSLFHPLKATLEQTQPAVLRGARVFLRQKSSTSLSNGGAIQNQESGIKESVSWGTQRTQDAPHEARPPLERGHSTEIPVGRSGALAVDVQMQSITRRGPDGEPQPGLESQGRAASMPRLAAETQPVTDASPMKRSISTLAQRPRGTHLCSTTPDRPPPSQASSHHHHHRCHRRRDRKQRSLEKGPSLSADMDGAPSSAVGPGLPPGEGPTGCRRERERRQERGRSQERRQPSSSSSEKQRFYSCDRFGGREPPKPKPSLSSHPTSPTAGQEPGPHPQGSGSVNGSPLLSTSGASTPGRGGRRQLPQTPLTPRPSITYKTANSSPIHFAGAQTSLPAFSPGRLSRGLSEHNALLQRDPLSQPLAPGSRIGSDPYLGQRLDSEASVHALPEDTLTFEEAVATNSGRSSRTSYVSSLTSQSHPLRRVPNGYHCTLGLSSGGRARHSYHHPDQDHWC
T4 sequence (Q02410 whole entry, the tested form may be a part): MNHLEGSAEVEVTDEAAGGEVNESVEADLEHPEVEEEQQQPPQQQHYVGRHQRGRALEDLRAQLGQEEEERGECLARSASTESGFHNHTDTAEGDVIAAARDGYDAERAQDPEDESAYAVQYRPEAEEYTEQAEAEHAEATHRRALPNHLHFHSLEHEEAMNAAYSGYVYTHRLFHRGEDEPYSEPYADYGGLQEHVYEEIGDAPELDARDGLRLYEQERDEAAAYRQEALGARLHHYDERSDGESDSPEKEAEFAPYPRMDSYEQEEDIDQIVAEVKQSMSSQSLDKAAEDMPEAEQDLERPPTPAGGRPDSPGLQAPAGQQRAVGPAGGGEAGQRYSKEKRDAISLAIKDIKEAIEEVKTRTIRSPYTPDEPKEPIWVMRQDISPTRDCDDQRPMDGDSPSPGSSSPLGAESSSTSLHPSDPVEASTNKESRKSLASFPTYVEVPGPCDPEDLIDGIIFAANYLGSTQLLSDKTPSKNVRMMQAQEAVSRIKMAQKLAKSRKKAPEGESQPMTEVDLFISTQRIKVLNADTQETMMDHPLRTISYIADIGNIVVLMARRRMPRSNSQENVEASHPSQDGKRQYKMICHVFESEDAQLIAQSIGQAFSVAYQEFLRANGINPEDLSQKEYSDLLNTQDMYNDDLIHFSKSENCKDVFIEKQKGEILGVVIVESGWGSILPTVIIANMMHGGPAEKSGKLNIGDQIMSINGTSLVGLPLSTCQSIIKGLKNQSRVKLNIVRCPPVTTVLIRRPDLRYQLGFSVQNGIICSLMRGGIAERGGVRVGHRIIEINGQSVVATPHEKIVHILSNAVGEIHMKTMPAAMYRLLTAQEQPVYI

[21] = target: T2, Runt-related transcription factor 1/Core-binding factor subunit beta; assay: inhibitors of RUNX1 Runt–CBFb-SMMHC binding, primary screen, biochemical, FRET, Cerulean-Runt, Venus-CBFb-SMMHC, uHTS (AID 1434); assay type: protein assay;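 also: partner is the CBFb-SMMHC leukemia fusion protein rather than wild-type CBFb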
[22] = target: T4, Voltage-gated N-type calcium channel alpha-1B subunit/Amyloid beta A4 precursor protein-binding family A member 1; assay type: protein assay
[23] = target: T4, Voltage-gated N-type calcium channel alpha-1B subunit/Amyloid beta A4 precursor protein-binding family A member 1; assay type: protein assay; remark: listed apart in the source
NS3 = NS3 (Hepatitis C virus, UniProt A3EZJ3); assay: PubChem AID 2173; parameters: species or system Hepacivirus hominis
[24] = target: Induced myeloid leukemia cell differentiation protein Mcl-1 (Homo sapiens, UniProt Q07820); assay type: functional
[25] = target: T3, Probable nicotinate-nucleotide adenylyltransferase; assay type: functional, Staphylococcus aureus subsp. aureus N315; conditions: read-out: IC50_Mean
[26] = target: T5, Type-1 angiotensin II receptor (Homo sapiens, UniProt P30556); assay: AT1 receptor agonists, dose response, selectivity assay for APJ receptor agonist project, cell-based, uHTS hits (AID 488865); assay type: functional;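 also: beta-arrestin recruitment to AT1 measured by enzyme fragment complementation luminescence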
T5 sequence (P30556 whole entry): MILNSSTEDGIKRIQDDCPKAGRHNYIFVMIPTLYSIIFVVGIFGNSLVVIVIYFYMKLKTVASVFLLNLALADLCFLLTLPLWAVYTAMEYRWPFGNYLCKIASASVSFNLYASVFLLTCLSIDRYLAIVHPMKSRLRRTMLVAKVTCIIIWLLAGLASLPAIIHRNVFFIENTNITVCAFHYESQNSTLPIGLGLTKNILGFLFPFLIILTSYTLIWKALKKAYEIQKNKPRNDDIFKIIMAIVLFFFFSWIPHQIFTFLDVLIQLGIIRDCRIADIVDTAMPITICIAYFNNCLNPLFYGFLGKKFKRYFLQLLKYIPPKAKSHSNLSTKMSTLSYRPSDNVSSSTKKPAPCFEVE

Cc1ccc(C(=O)Nc2sc(C)c(-c3ccccc3)c2C(N)=O)cc1[N+](=O)[O-]
IC50 (HEK293 [1]): > 20 µM (inactive)
EC50 (HEK293 [2]): > 20 µM (inactive)
IC50 (HEK293 [3]): > 20 µM (inactive)
EC50 [4]: < 0.31 µM (inactive)
IC50 (HEK293 [5]): > 20 µM (inactive)
IC50 (HEK293 [6]): < 0.312 µM (active)
EC50 [7]: < 0.16 µM (active)

CCOC(=O)c1[nH]c(C)c(C(=O)c2cc(F)ccc2F)c1C
EC50 [8]: 0.241 µM (inconclusive)
EC50 [9]: 11.5 µM (active)
EC50 [10]: 0.557 µM (active)
EC50 [11]: 0.2 µM (active)
EC50 [12]: 0.241 µM (active)
EC50 [13]: 1.66 µM (active)
EC50 [14]: 10.6 µM (active)
EC50 [15]: 1.66 µM (inconclusive)
EC50 [16]: 0.557 µM (inconclusive)
IC50 [17]: > 80 µM (inactive)

O=C(COC(=O)c1c2c(nc3ccccc13)/C(=C/c1ccco1)CC2)NC1CCCC1
IC50 [18]: 10.4 µM (active)
IC50 [19]: 6.95 µM (active)
IC50 [20]: 3.75 µM (active)
IC50 [21]: > 100 µM (inactive)
IC50 [22]: 9.12 µM (active)
IC50 [23]: 5.81 µM (active)
IC50 (NS3): 12.6 µM (not active)
IC50 [24]: 6.5 µM (active)
IC50 [25]: 15 µM (active)

CSc1cccc(NC(=S)NC(=O)CCc2ccccc2)c1
EC50 [26]: > 100 µM (inactive)
